From patent US9611273B2, “Trioxane thioacetal monomers and dimers and methods of use thereof” (THE JOHNS HOPKINS UNIVERSITY, priority 2012, dated 2017)

Columns and labels:
[1] = test system: P. berghei malaria parasites; assay: In vivo antimalarial efficacy, single oral dose of trioxane plus mefloquine hydrochloride in P. berghei-infected mice; conditions: for mouse survival post infection: single oral dose 6 mg/kg trioxane plus 18 mg/kg mefloquine, or 18 mg/kg mefloquine alone; for % suppression of parasitemia (on day 3 post infection) / average survival (days) after infection: single oral dose of 6 mg/kg trioxane and 18 mg/kg mefloquine hydrochloride (control: mefloquine-HCl only), P. berghei-infected mice; for average survival (days) after infection: groups of 4
Experimental: Using a standard protocol, see Slack, et al., 2012, 20-gram mice were infected by intraperitonial injection with P. berghei malaria parasites. One day after infection, each mouse in groups of 4 mice received a single oral dose of 6 mg/kg body weight of a trioxane thioacetal combined with 18 mg/kg of the long-lived antimalarial mefloquine hydrochloride. In all cases, parasitemia was decreased by at least 99% on day 3 post infection. Malaria-infected mice receiving no antimalarial drug died on day 6 or 7 post infection. Critically, control groups of mice receiving 6 mg/kg of the popular trioxane drug artemether (2b) plus 18 mg/kg of mefloquine, or just 18 mg/kg of mefloquine alone, survived for about 3 weeks post infection. In contrast, several of the presently disclosed trioxane thioacetals prolonged mouse survival for longer than 3 weeks, and in some instances produced partial cures; for example, 2 of 4 mice in one group (diisopropyl carbamate 3u) appeared healthy and had no detectable parasitemia on day 30 post infection.
The antimalarial efficacy of representative presently disclosed C-10 thioacetals, as well as controls, is summarized in Table 1, which includes the parasitemia levels for mice on day 3 post-infection.

P388 leukemia = conditions: NCI Report on NSC 369397, tested on 25 Oct. 1983; cited from earlier work
[2] = single oral dose 6 mg/kg plus 18 mg/kg mefloquine hydrochloride

CC(C)N(C(=O)OCCCS[C@@H]1O[C@@H]2O[C@]3(C)CC[C@H]4[C@H](C)CC[C@@H]([C@H]1C)[C@@]24OO3)C(C)C [3u, AMJ-Art-10α-S(CH2)3OC(O)N(iPr)2]
antimalarial efficacy in words [1, 2]: most highly efficacious
mice appearing healthy with no detectable parasitemia on day 30 post infection (partial cure) ([1]; single oral dose 6 mg/kg plus 18 mg/kg mefloquine hydrochloride, group of 4 mice): 2 of 4

Cl.OC(c1cc(C(F)(F)F)nc2c(C(F)(F)F)cccc12)C1CCCCN1 (centres unmarked) [mefloquine-HCl only, mefloquine hydrochloride, reference compound]
mouse survival post infection [1]: about 3 weeks
% suppression of parasitemia (on day 3 post infection) [1]: >99.9%
average survival (days) after infection [1]: 14.0 days

CSC(=O)OCCCS[C@@H]1O[C@@H]2O[C@@]3(C)CC[C@H]4[C@H](C)CC[C@@H]([C@H]1C)[C@@]24OO3 [compound 109, Art-10α-S(CH2)3OC(O)SCH3]
% suppression of parasitemia (on day 3 post infection) [1]: >99.9%
average survival (days) after infection [1]: 24.5 days

CO[C@H]1O[C@@H]2O[C@@]3(C)CC[C@H]4[C@H](C)CC[C@@H]([C@H]1C)[C@@]24OO3 [artemether, reference compound]
mouse survival post infection [1]: about 3 weeks

C[C@H]1[C@H](SCCCOCc2ccc(F)cc2)O[C@@H]2O[C@]3(C)CC[C@H]4[C@H](C)CC[C@@H]1[C@@]24OO3 [3h, Art-10α-S(CH2)3OCH2PhF-4]
antimalarial efficacy in words [1, 2]: most highly efficacious

C[C@H]1[C@H](SCCCOCn2nnc3ccccc32)O[C@@H]2O[C@]3(C)CC[C@H]4[C@H](C)CC[C@@H]1[C@@]24OO3 [3k, Art-10α-S(CH2)3OCH2—N-benzotriazole]
antimalarial efficacy in words [1, 2]: most highly efficacious

CSC(=S)OCCCS[C@@H]1O[C@@H]2O[C@]3(C)CC[C@H]4[C@H](C)CC[C@@H]([C@H]1C)[C@@]24OO3 [compound 114, Art-10α-S(CH2)3OC(S)SCH3]
% suppression of parasitemia (on day 3 post infection) [1]: 99.9%
average survival (days) after infection [1]: 22.0 days

C[C@@H]1CC[C@H]2[C@@H](C)C(=O)O[C@@H]3O[C@@]4(C)CC[C@@H]1[C@]32OO4 [artemisinin]
activity against P388 leukemia (P388 leukemia): inactive

C[C@H]1[C@H](SCCCOC(=O)SC(C)(C)C)O[C@@H]2O[C@@]3(C)CC[C@H]4[C@H](C)CC[C@@H]1[C@@]24OO3 [compound 111, Art-10α-S(CH2)3OC(O)StBu]
% suppression of parasitemia (on day 3 post infection) [1]: 99.9%
average survival (days) after infection [1]: 29.8 days

CCCSC(=O)OCCCS[C@@H]1O[C@@H]2O[C@@]3(C)CC[C@H]4[C@H](C)CC[C@@H]([C@H]1C)[C@@]24OO3 [compound 110, Art-10α-S(CH2)3OC(O)SnPr]
% suppression of parasitemia (on day 3 post infection) [1]: >99.9%
average survival (days) after infection [1]: 19.3 days
